From patent publication US4178442A, “Novel cinnamoyles piperazines and homopiperazines, the method of preparing them and their application in therapeutics” (Delalande S. A., priority 1977, dated 1979)
Where two headings read alike, the source gives them in different places.

Key:
[1] = test system: anaesthetized dog; test: Antiangorous activity on anaesthetized dog: consumption of oxygen in the left ventricule and cardiac effort (KATZ's index); type: in vivo; settings: for inhibition in vivo at 2.3 mg/kg / inhibition in vivo at 2.5 mg/kg / inhibition in vivo at 4.6 mg/kg / inhibition in vivo at 0.6 mg/kg / inhibition in vivo at 1.25 mg/kg / inhibition in vivo at […] / inhibition in vivo at 0.54 mg/kg / inhibition in vivo at 0.625 mg/kg: Canis lupus familiaris, iv; for inhibition in vivo at […]: 0.15 mg/kg i.v. slow perfusion
Method: The antiangorous activity was tested on an anaesthetized dog (sodium pentobarbital 30 mg/kg/i.v.).
The consumption of oxygen in the left ventricule was estimated by the product of the coronary venous flow and the coronary arteriovenous difference in oxygen (% volume).
The coronary venous flow was measured at the coronary venous sinus by means of a modified Morawitz cannula, introduced under radioscopic control.
The cardiac effort was estimated according to KATZ's index, by the product of the average arterial pressure and the cardiac frequency.
The cardiac frequency was estimated from the electrocardiogram recorded with D2 derivation.
It should be noted that the compounds tested were injected intravenously with slow perfusion.

[2] = in vivo; settings: for LD50: read-out: Toxicity: LD50; for mortality: read-out: Toxicity (Mortality)
From the text: *LD50 or percentage of mortality which is given between brackets

[3] = 2.5 mg/kg i.v. slow perfusion, read-out: Diminution in consumption of O2
[4] = 2.5 mg/kg i.v. slow perfusion, read-out: Diminution in the cardiac effort (IK)
[5] = 0.6 mg/kg i.v. slow perfusion, read-out: Diminution in consumption of O2
[6] = 0.6 mg/kg i.v. slow perfusion, read-out: Diminution in the cardiac effort (IK)
[7] = 0.625 mg/kg i.v. slow perfusion

COc1cc(/C=C/C(=O)N2CCN(CC(O)COc3c(OC)cccc3OC)CC2)cc(OC)c1OC (stereo not shown) [760 580]
Diminution in consumption of O2: in time ([1]; 2.3 mg/kg i.v. slow perfusion): 30 min | Diminution in the cardiac effort (IK): in time ([1]; 2.3 mg/kg i.v. slow perfusion): 15 min | inhibition in vivo at 2.3 mg/kg ([1]; 2.3 mg/kg i.v. slow perfusion, read-out: Diminution in consumption of O2): 19% | inhibition in vivo at 2.3 mg/kg ([1]; 2.3 mg/kg i.v. slow perfusion, read-out: Diminution in the cardiac effort (IK)): 26% | LD50 ([2]; iv): 294 mg/kg

CCOC(=O)c1ccc(OCC(O)CN2CCN(C(=O)/C=C/c3cc(OC)c(OC)c(OC)c3)CC2)cc1 (stereo not shown) [760 382]
Diminution in consumption of O2: in time ([1]; 2.5 mg/kg i.v. slow perfusion): 30 min | Diminution in the cardiac effort (IK): in time ([1]; 2.5 mg/kg i.v. slow perfusion): 30 min | inhibition in vivo at 2.5 mg/kg [1, 3]: 40% | inhibition in vivo at 2.5 mg/kg [1, 4]: 24% | LD50 ([2]; iv): 260 mg/kg

COc1cc(/C=C/C(=O)N2CCN(CC(O)COc3ccc(SC)cc3)CC2)cc(OC)c1OC (stereo not shown) [760 507]
Diminution in consumption of O2: in time ([1]; 4.6 mg/kg i.v. slow perfusion): 60 min | Diminution in the cardiac effort (IK): in time ([1]; 4.6 mg/kg i.v. slow perfusion): 30 min | inhibition in vivo at 4.6 mg/kg ([1]; 4.6 mg/kg i.v. slow perfusion, read-out: Diminution in consumption of O2): 68% | inhibition in vivo at 4.6 mg/kg ([1]; 4.6 mg/kg i.v. slow perfusion, read-out: Diminution in the cardiac effort (IK)): 32% | LD50 ([2]; iv): 185 mg/kg

CNC(=O)Nc1ccc(OCC(O)CN2CCN(C(=O)/C=C/c3cc(OC)c(OC)c(OC)c3)CC2)c2c1OCO2 (stereo not shown) [780 409]
Diminution in consumption of O2: in time ([1]; 2.5 mg/kg i.v. slow perfusion): 90 min | Diminution in the cardiac effort (IK): in time ([1]; 2.5 mg/kg i.v. slow perfusion): 90 min | inhibition in vivo at 2.5 mg/kg [1, 3]: 54% | inhibition in vivo at 2.5 mg/kg [1, 4]: 43% | mortality ([2]; iv, 400 mg/kg i.v.): 20%

CCCC(=O)c1ccc(OCC(O)CN2CCN(C(=O)/C=C/c3cc(OC)c(OC)c(OC)c3)CC2)c2c1OCCO2 (stereo not shown) [760 866]
Diminution in consumption of O2: in time ([1]; 0.6 mg/kg i.v. slow perfusion): 30 min | Diminution in the cardiac effort (IK): in time ([1]; 0.6 mg/kg i.v. slow perfusion): 30 min | inhibition in vivo at 0.6 mg/kg [1, 5]: 54% | inhibition in vivo at 0.6 mg/kg [1, 6]: 20% | mortality ([2]; iv, 360 mg/kg i.v.): 30%

CNC(=O)c1ccc(OCC(O)CN2CCN(C(=O)/C=C/c3cc(OC)c(OC)c(OC)c3)CC2)cc1 (stereo not shown) [770 135]
Diminution in consumption of O2: in time ([1]; 1.25 mg/kg i.v. slow perfusion): 30 min | Diminution in the cardiac effort (IK): in time ([1]; 1.25 mg/kg i.v. slow perfusion): 30 min | inhibition in vivo at 1.25 mg/kg ([1]; 1.25 mg/kg i.v. slow perfusion, read-out: Diminution in consumption of O2): 40% | inhibition in vivo at 1.25 mg/kg ([1]; 1.25 mg/kg i.v. slow perfusion, read-out: Diminution in the cardiac effort (IK)): 28% | mortality ([2]; iv, 400 mg/kg i.v.): 0%

CCOC(=O)c1ccc(OCC(O)CN2CCN(C(=O)/C=C/c3cc(OC)c(OC)c(OC)c3)CC2)c2c1OCCO2 (stereo not shown) [760 700]
Diminution in consumption of O2: in time ([1]; 0.6 mg/kg i.v. slow perfusion): 45 min | Diminution in the cardiac effort (IK): in time ([1]; 0.6 mg/kg i.v. slow perfusion): 60 min | inhibition in vivo at 0.6 mg/kg [1, 5]: 59% | inhibition in vivo at 0.6 mg/kg [1, 6]: 47% | mortality ([2]; iv, 367 mg/kg i.v.): 0%

CCCNC(=O)Nc1ccc(OCC(O)CN2CCN(C(=O)/C=C/c3cc(OC)c(OC)c(OC)c3)CC2)c2c1OCCO2 (stereo not shown) [770 483]
inhibition in vivo at […] ([1]; read-out: Diminution in consumption of O2): 74% | inhibition in vivo at […] ([1]; read-out: Diminution in the cardiac effort (IK)): 16% | mortality ([2]; po, p.o.: 2000 mg/kg): 0%

CNC(=O)c1ccc(OCC(O)CN2CCN(C(=O)/C=C/c3cc(OC)c(OC)c(OC)c3)CC2)c2c1OCCO2 (stereo not shown) [760 710]
Diminution in consumption of O2: in time ([1]; 0.54 mg/kg i.v. slow perfusion): 60 min | Diminution in the cardiac effort (IK): in time ([1]; 0.54 mg/kg i.v. slow perfusion): 30 min | inhibition in vivo at 0.54 mg/kg ([1]; 0.54 mg/kg i.v. slow perfusion, read-out: Diminution in consumption of O2): 64% | inhibition in vivo at 0.54 mg/kg ([1]; 0.54 mg/kg i.v. slow perfusion, read-out: Diminution in the cardiac effort (IK)): 36% | mortality ([2]; iv, 345 mg/kg i.v.): 70%

COc1cc(/C=C/C(=O)N2CCN(CC(O)COc3ccc([N+](=O)[O-])c(C)c3)CC2)cc(OC)c1OC (stereo not shown) [770 963]
Diminution in consumption of O2: in time ([1]; 2.5 mg/kg i.v. slow perfusion): 30 min | Diminution in the cardiac effort (IK): in time ([1]; 2.5 mg/kg i.v. slow perfusion): 30 min | inhibition in vivo at 2.5 mg/kg [1, 3]: 58% | inhibition in vivo at 2.5 mg/kg [1, 4]: 66% | LD50 ([2]; iv): 190 mg/kg

CCCCC(=O)Nc1ccc(OCC(O)CN2CCN(C(=O)/C=C/c3cc(OC)c(OC)c(OC)c3)CC2)c2c1OCCO2 (stereo not shown) [770 601]
Diminution in consumption of O2: in time [1, 7]: 30 min | Diminution in the cardiac effort (IK): in time [1, 7]: 30 min | inhibition in vivo at 0.625 mg/kg ([1]; 0.625 mg/kg i.v. slow perfusion, read-out: Diminution in consumption of O2): 69% | inhibition in vivo at 0.625 mg/kg ([1]; 0.625 mg/kg i.v. slow perfusion, read-out: Diminution in the cardiac effort (IK)): 25% | mortality ([2]; po, p.o.: 2000 mg/kg): 22%

COc1cc(/C=C/C(=O)N2CCN(CC(O)COc3cccc4c3OCO4)CC2)cc(OC)c1OC (stereo not shown) [780 138]
Diminution in consumption of O2: in time ([1]; 2.5 mg/kg i.v. slow perfusion): 45 min | Diminution in the cardiac effort (IK): in time ([1]; 2.5 mg/kg i.v. slow perfusion): 30 min | inhibition in vivo at 2.5 mg/kg [1, 3]: 46% | inhibition in vivo at 2.5 mg/kg [1, 4]: 19% | LD50 ([2]; iv): 150 mg/kg
